Experimental data reported in patent publication US20100120798A1, “SUBSTITUTED PIPERIDINES CONTAINING A HETEROARYLAMIDE OR HETEROARYLPHENYL MOIETY” (ASTEX THERAPEUTICS LIMITED, priority 2006, published 2010).
Counter-ions that a name gives are not always drawn.

Experiment: In vitro MDA-MB-468 human breast adenocarcinoma GSK-3 phosphorylation assay
Format: cell-based
Conditions: mean IC50, MDA-MB-468 cells, 2 hours with compound, phospho-GSK-3β
Excerpt: This assay determines the ability of test compounds to inhibit phosphorylation of Serine-9 residue in Glycogen Synthase Kinase-3beta (GSK-3β) as a surrogate marker of cellular PKB (Akt) activity, as assessed using Acumen Explorer Fluorescent Plate-Reader technology. A MDA-MB-468 human breast adenocarcinoma cell line (LGC Promochem, Teddington, Middlesex, UK, Catalogue No. HTB-132) was routinely maintained in Dulbecco's modified Eagle's growth medium (DMEM; Invitrogen Limited, Paisley, UK Catalogue No. 11966-025) containing 10% heat-inactivated foetal calf serum (FCS; Sigma, Poole, Dorset, UK, Catalogue No. F0392) and 1% L-glutamine (Gibco, Catalogue No. 25030-024) at 37° C. with 5% CO2 up to a confluency of 70-90%.
For the phosphorylation assay, the cells were detached from the culture flask using Trypsin-EDTA (Invitrogen Limited, Catalogue No. 25300-062) and seeded into the wells of a black transparent-bottom Corning Costar Polystyrene 96 well plate (Fisher Scientific UK, Loughborough, Leicestershire, UK; Catalogue No. 3904 and DPS-130-020K) at a density of 5000 cells per well in 100 μl of complete growth media. The cells were incubated overnight at 37° C. with 5% CO2 to allow them to adhere.
On day 2, the cells were treated with test compounds and incubated for 2 hours at 37° C. with 5% CO2. Test compounds were prepared as 10 mM stock solutions in DMSO and dosed directly to required concentration into test wells using non-contact (acoustic dispensing of multiple 2.5 nl droplets directly into assay wells) ECHO dosing technology (Labcyte Inc. Sunnyvale, Calif., USA). Each plate contained control wells without test compound.
20 μl of fixing buffer (Phosphate Buffered Saline (PBS) containing 10% formaldehyde; Sigma; Catalogue No. F1635) was then added to each well to give a final well concentration 1.6%. Plates were then incubated for 30 minutes at room temperature prior to the fixative being removed. Each well was washed once with 250 μl of PBS and then 50 μl PBS added to each well. PBS was then aspirated and cells permeabilised and blocked by incubating each well with 50 μl of permeabilisation/blocking buffer (PBS containing 0.5% Tween 20 (Sigma; Catalogue No. P5927) and 5% Marvel Milk Powder (Andrews Pharmacy Ltd, Macclesfield, Cheshire, UK; Catalogue No. APC100199)) for 1 hour at room temperature prior to staining.
Following removal of Perm/Block buffer, 50 μl of primary anti-phospho-GSK-3β antibody (Cell Signalling Technology (New England Biolabs (Uk) Ltd.), Hitchin, Hertfordshire, UK; Catalogue No. 9336 diluted 1:400 in Blocking buffer (PBS containing 5% Marvel and 0.05% Tween/Polysorbate 20) was added to each well and incubated overnight at 4° C.
Each well was washed three times in 250 μl of wash buffer (PBS containing 0.05% polysorbate 20), and cells incubated for 1 hour at room temperature with 50 μl of secondary fluorescently-labelled anti-rabbit Alexa Fluor 488 antibody (Molecular Probes, Invitrogen Limited, Catalogue No. A11008) diluted 1:750 in blocking buffer. Plates were washed three times in 250 μl of wash buffer and stored containing 50 μl of PBS at 4° C. until required.
Plates were analysed using an Acumen Explorer Plate-reader to quantify level of fluorescent signal that represents quantity of phosphorylated-GSK-3β.
IC50 calculation—IC50 is the concentration of compound required to give 50% effect over the range of activity affected by the compound, between maximum (no compound) and minimum (excess level of compound) response control data. IC50 values were determined by fitting background corrected, dose response assay data to a 4 parameter logistic curve fit equation model with the minimum response set to zero. This was done using an in-house developed algorithm within the Origin graphing software package (OriginLab Corporation, Northampton, Mass., USA). […]

Compound	IC50 [nM]
Cc1sccc1-c1cccc(C2(CN)CCN(c3ncnc4[nH]cnc34)CC2)c1 [Example 7, C-[4-[3-(2-Methyl-thiophen-3-yl)-phenyl]-1-(9H-purin-6-yl)-piperidin-4-yl]-methylamine]	< 8
NCC1(c2cccc(-c3cncc(F)c3)c2)CCN(c2ncnc3[nH]cnc23)CC1 [Example 8, C-[4-[3-(5-Fluoro-pyridin-3-yl)-phenyl]-1-(9H-purin-6-yl)-piperidin-4-yl]-methylamine]	< 13
CNCC1(c2cccc(-c3cnn(C)c3)c2)CCN(c2ncnc3[nH]cnc23)CC1 [Example 9, Methyl-[4-[3-(1-methyl-1H-pyrazol-4-yl)-phenyl]-1-(9H-purin-6-yl)-piperidin-4-ylmethyl]-amine]	400
Cn1cc(-c2cccc(C3(CO)CCN(c4ncnc5[nH]cnc45)CC3)c2)cn1 [Example 10, [4-[3-(1-Methyl-1H-pyrazol-4-yl)-phenyl]-1-(9H-purin-6-yl)-piperidin-4-yl]-methanol]	5100
NC1(C(=O)NCc2ccc(C(F)(F)F)nc2)CCN(c2ncnc3[nH]ccc23)CC1 [Example 14, 4-amino-1-(7H-pyrrolo[2,3-d]pyrimidin-4-yl)-piperidine-4-carboxylic acid (6-trifluoromethyl-pyridin-3-ylmethyl)-amide hydrochloride]	1400
NCC1(C(=O)NCc2ccc(Br)s2)CCN(c2ncnc3[nH]ccc23)CC1 [Example 21, 4-(aminomethyl)-N-((5-bromothiophen-2-yl)methyl)-1-(7H-pyrrolo[2,3-d]pyrimidin-4-yl)piperidine-4-carboxamide]	< 5.9
NCC1(C(=O)NCc2ccc(Cl)s2)CCN(c2ncnc3[nH]ccc23)CC1 [Example 22, 4-(Aminomethyl)-N-((5-chlorothiophen-2-yl)methyl)-1-(7H-pyrrolo[2,3-]pyrimidin-4-yl)piperidine-4-carboxamide]	16
Cc1ccc(CNC(=O)C2(CN)CCN(c3ncnc4[nH]ccc34)CC2)s1 [Example 23, 4-(Aminomethyl)-N-((5-methylthiophen-2-yl)methyl)-1-(7H-pyrrolo[2,3-d]pyrimidin-4-yl)piperidine-4-carboxamide]	43
NCC1(C(=O)NCc2cc(Br)no2)CCN(c2ncnc3[nH]ccc23)CC1 [Example 24, 4-(Aminomethyl)-N-((3-bromoisoxazol-5-yl)methyl)-1-(7H-pyrrolo[2,3-d]pyrimidin-4-yl)piperidine-4-carboxamide]	8.6
NCC1(C(=O)NCc2cc3ccccc3[nH]2)CCN(c2ncnc3[nH]nc(Br)c23)CC1 [Example 25, N-((1H-Indol-2-yl)methyl)-4-(aminomethyl)-1-(3-bromo-1H-pyrazolo[3,4-d]pyrimidin-4-yl)piperidine-4-carboxamide]	10
NCC1(C(=O)NCc2cc3ccccc3[nH]2)CCN(c2ncnc3[nH]ccc23)CC1 [Example 26, N-((1H-Indol-2-yl)methyl)-4-(aminomethyl)-1-(7H-pyrrolo[2,3-d]pyrimidin-4-yl)piperidine-4-carboxamide]	23
NCC1(C(=O)NCc2ccc(C(F)(F)F)nc2)CCN(c2ncnc3[nH]ccc23)CC1 [Example 27, 4-(Aminomethyl)-1-(7H-pyrrolo[2,3-d]pyrimidin-4-yl)-N-((6-(trifluoromethyl)pyridin-3-yl)methyl)piperidine-4-carboxamide]	110
Cn1cc(-c2cccc(C3(CN)CCN(c4ncnc5[nH]cc(Br)c45)CC3)c2)cn1 [Example 28, (1-(5-bromo-7H-pyrrolo[2,3-d]pyrimidin-4-yl)-4-(3-(1-methyl-1H-pyrazol-4-yl)phenyl)piperidin-4-yl)methanamine]	7.2
Cn1cc(-c2cccc(C3(CN)CCN(c4ncnc5[nH]cc(Cl)c45)CC3)c2)cn1 [Example 29, (1-(5-Chloro-7H-pyrrolo[2,3-d]pyrimidin-4-yl)-4-(3-(1-methyl-1H-pyrazol-4-yl)phenyl)piperidin-4-yl)methanamine]	11
Cc1c[nH]c2ncnc(N3CCC(CN)(c4cccc(-c5cnn(C)c5)c4)CC3)c12 [Example 30, (4-(3-(1-methyl-1H-pyrazol-4-yl)phenyl)-1-(5-methyl-7H-pyrrolo[2,3-d]pyrimidin-4-yl)piperidin-4-yl)methanamine]	27
Cn1cc(-c2cccc(C3(CN)CCN(c4ncnc5[nH]nc(Br)c45)CC3)c2)cn1 [Example 31, (1-(3-Bromo-1H-pyrazolo[3,4-d]pyrimidin-4-yl)-4-(3-(1-methyl-1H-pyrazol-4-yl)phenyl)piperidin-4-yl)methanamine]	22
CN(C)CC1(c2cccc(-c3cnn(C)c3)c2)CCN(c2ncnc3[nH]cnc23)CC1 [Example 32, N,N-dimethyl-1-(4-(3-(1-methyl-1H-pyrazol-4-yl)phenyl)-1-(9H-purin-6-yl)piperidin-4-yl)methanamine]	290
Cn1cc(-c2cccc(C3(CN4CCCC4)CCN(c4ncnc5[nH]cnc45)CC3)c2)cn1 [Example 33, 6-(4-(3-(1-methyl-1H-pyrazol-4-yl)phenyl)-4-(pyrrolidin-1-ylmethyl)piperidin-1-yl)-9H-purine]	740
Cn1cc(-c2cccc(C3(CCCN)CCN(c4ncnc5[nH]cnc45)CC3)c2)cn1 [Example 34, 3-(4-(3-(1-methyl-1H-pyrazol-4-yl)phenyl)-1-(9H-purin-6-yl)piperidin-4-yl)propan-1-amine]	> 2000
Cn1cc(-c2cccc(C3(CNC(=O)CN)CCN(c4ncnc5[nH]cnc45)CC3)c2)cn1 [Example 35, 2-amino-N-((4-(3-(1-methyl-1H-pyrazol-4-yl)phenyl)-1-(9H-purin-6-yl)piperidin-4-yl)methyl)acetamide]	1300
CN(C)CC(=O)NCC1(c2cccc(-c3cnn(C)c3)c2)CCN(c2ncnc3[nH]cnc23)CC1 [Example 36, 2-(dimethylamino)-N-((4-(3-(1-methyl-1H-pyrazol-4-yl)phenyl)-1-(9H-purin-6-yl)piperidin-4-yl)methyl)acetamide]	2800
Cn1cc(-c2cccc(C3(C(N)=O)CCN(c4ncnc5[nH]cnc45)CC3)c2)cn1 [Example 37, 4-[3-(1-methylpyrazol-4-yl)phenyl]-1-(9H-purin-6-yl)piperidine-4-carboxamide]	> 30000
NC1(C(=O)NCc2ccc(Cl)s2)CCN(c2ncnc3[nH]ccc23)CC1 [Example 39, 4-Amino-N-[(5-chlorothiophen-2-yl)methyl]-1-(7H-pyrrolo[2,3-d]pyrimidin-4-yl)piperidine-4-carboxamide]	300
Cc1csc(CNC(=O)C2(N)CCN(c3ncnc4[nH]ccc34)CC2)n1 [Example 40, 4-Amino-N-[(4-methyl-1,3-thiazol-2-yl)methyl]-1-(7H-pyrrolo[2,3-d]pyrimidin-4-yl)piperidine-4-carboxamide]	3400
NC1(C(=O)NCc2cnc3ccccc3c2)CCN(c2ncnc3[nH]ccc23)CC1 [Example 41, 4-Amino-1-(7H-pyrrolo[2,3-d]pyrimidin-4-yl)-N-(quinolin-3-ylmethyl)piperidine-4-carboxamide]	4100
NC1(C(=O)NCc2csc(-c3ccccc3)n2)CCN(c2ncnc3[nH]ccc23)CC1 [Example 42, 4-Amino-N-[(2-phenyl-1,3-thiazol-4-yl)methyl]-1-(7H-pyrrolo[2,3-d]pyrimidin-4-yl)piperidine-4-carboxamide]	7100
